Consider two molecules from patent publication US7253139B2, “Surfactant preparations comprising α-hydroxy acids” (Cognis Deutschland GmbH & Co. KG, priority 2001, dated 2007).

A short description of data set [1]: Determination of surface tension, Wilhelmy plate method (DIN 53914). Type of data set: physicochemical. The following applies: added to anionic surfactant (Texapon NSO). Here is the method:
Determination of Surface Activity
Surface activity was determined to DIN 53914. To this end, the solution to be tested was tested by the Wilhelmy plate method (plate PT 11) at 21±1° C. The preparations according to the invention are intended to have a surface activity of at least 20 mN/m, preferably at least 25 mN/m and more particularly at least 30 mN/m, based on the active substance content of 5% by weight.
The surface tension of the surfactant solution containing tartaric acid was compared with that of the pure surfactant solution (Texapon® NSO, sodium lauryl ether sulfate; Cognis, Dusseldorf) by conducting measurements at 21±1° C. using the Wilhelmy plate method (plate PT 11) to DIN 53914.

Data set [2] is described as follows: Determination of foaming behavior, rotor foam method. Type of data set: physicochemical. To be noted: added to anionic surfactant (Texapon NSO). As to the method: To determine foaming behavior, the foaming kinetics after 30 seconds and the foam potential after 60 s and 180 s were measured by the rotor foam method (DIN 13996 in preparation). The rotor foam tester consists of a heatable, double-walled cylindrical glass vessel with an internal diameter of 17.5 cm. A scale in mm is provided on the cylindrical glass vessel for reading off the foam height and the liquid level. In addition, the glass vessel is provided with a Styropor lid which is used both to cover and to insulate the vessel. The stirrer consists of a special stirring head with a stirrer shaft 28 cm in length and 1 cm in diameter and a JK stirrer with a digital revolution counter. A thermostat, a stopwatch and a thermometer (digital) are also required.
The test solution was prepared with water of a certain hardness (15° dH). 200 ml of the sample preheated to 30±1° C. were slowly poured in at the rim of the glass vessel which was covered with the Styropor lid when the required temperature of 30±1° C. had been reached. The rotor speed was 1300 r.p.m.
The first foam height value was determined after 30 seconds. To this end, the stirrer was switched off for at most 10 seconds. The foam volume was then determined after 60 and 180 seconds.

For the molecule `O=C(O)C(O)C(O)C(=O)O` (stereo not shown) [tartaric acid], the “Effect of the addition on the surface activity of the anionic surfactant” value in data set [1] is “does not significantly affect”. Further, the “Effect of the addition on the foam behavior of the anionic surfactant” value in data set [2] is “does not significantly affect”.
For the molecule laureth-4-citrate, the “Effect of the addition on the surface activity of the anionic surfactant” value in data set [1] is “does not significantly affect”. For the same molecule, in data set [2], the “Effect of the addition on the foam behavior of the anionic surfactant” value is on record as “does not significantly affect”.
